The conditions of data set [1]: 30 mg daily dose; patients with AD; cited from earlier work.
The conditions of data set [2]: cited from earlier work.
Data set [3] has as its system Swiss albino mice (aggression, duration of attack). As to the kind of experiment: Resident-intruder task. The data set is classed as in vivo, mouse. The settings on record: masupirdine 0.30 mg/kg p.o. 60 min prior; donepezil or memantine 0.30 mg/kg i.p. 30 min prior; 10 min exposure. Here is the method:
Male Swiss albino mice of weight range 30-40 g (Resident) and 15-25 g (Intruder) were used. Resident mice were habituated individually with an ovariectomized female mouse in each cage for at least 2 weeks and intruders were habituated socially for at least 5 days. β-Estradiol at a dose of 0.2 mg/kg, s.c. was administered to ovariectomized female mice during habituation. After habituation for 3 weeks, the intruder was exposed to resident mice for a period of 10 min in the home cage of resident animal and duration of attack was recorded for two days (day 1 & 2). During this 10 min exposure period, ovariectomized female mice were removed from resident cage, resident animals were randomized based on their duration of attack. On day 4 (from initial exposure), resident animals were administered respective treatments. […] After post dose interval resident mice were exposed to same intruder for 10 min and duration of attack was recorded. Data were analyzed using GraphPad Prism software.

In data set [4] the test system is DOI induced head twitch response (model of hallucination). As to the kind of experiment: DOI induced head twitch response. The data set is classed as in vivo, rat. The settings on record: 1 mg/kg, p.o.; DOI 5 mg/kg s.c.; 10 min. The method, then:
DOI induced head twitch response is considered to be a behavioral model of hallucination (Pharmacol Rep. 2012; 64(6):1567-72). Male Wistar rats of 200-290 g were weighed and randomized according to their body weights. On day 1, rats were first habituated to the arena for 15 min. […] 15 min before the trial, rats were subjected to habituation and immediately following the habituation, DOI, 5 mg/kg s.c was administered. The rats were then placed in the arena and head twitches were recorded for 10 min. Data were analyzed using GraphPad Prism software.

For data set [5], the system named is norepinephrine and dopamine levels in prefrontal cortex. Put plainly: Microdialysis: modulation of norepinephrine and dopamine levels in cortex. The data set is classed as in vivo, rat. Particulars: male Wistar rats, masupirdine 3 mg/kg p.o., donepezil or memantine 1 mg/kg s.c. From the text: Male Wistar rats (240-300 g body weight) were stereotaxically implanted with a microdialysis guide cannula in prefrontal cortex (PFC; AP: +3.2 mm, ML: −0.5 mm, DV: −1.0 mm) under isoflurane anesthesia. […] The rats were allowed to recover individually for four days in a round bottom Plexiglas bowl with free access to feed and water.
Sixteen hours before start of the study, a pre-equilibrated microdialysis probe (4 mm dialysis membrane) was inserted into PFC through the guide cannula. On the day of study, probe was perfused with artificial cerebrospinal fluid (aCSF; NaCl 150 mmol, KCl 3.0 mmol, MgCl2 0.9 mmol, CaCl2. 2H2O 1.7 mmol, pH 6.2) at a flow rate of 1.5 μL/min and a stabilization period of 2 h was maintained. […] Dialysates were stored below −50° C. prior to analysis.
Norepinephrine and dopamine levels in dialysates were quantified using LC-MS/MS method.
Statistical significance was considered at a p value less than 0.05.

Entries after “also recorded” stand apart in the source; their conditions may differ.

On to `CN(C)CCCC1(c2ccc(F)cc2)OCc2cc(C#N)ccc21` (centres unmarked) [Citalopram], for which, in data set [1], the “adverse effects seen in treatment group” value is “Worsening of cognition; also recorded: QT interval prolongation”.

For `CC(C)COc1ccc(CNC(=O)N(Cc2ccc(F)cc2)C2CCN(C)CC2)cc1` [Pimavanserin], the effect for agitation result in data set [2] (AD study) is given as “no effect”. The “effect on NPI-NH psychosis scale” value in data set [2] (week 6) is listed as “statistically significant effect”.

As for `COc1ccc2c(c1)c(CN1CCN(C)CC1)cn2S(=O)(=O)c1ccccc1Br` [masupirdine, 1-[(2-bromophenyl)sulfonyl]-5-methoxy-3-[(4-methyl-1-piperazinyl)methyl]-1H-indole], the “duration of attack compared with basal” value in data set [3] is reported as “equal duration of attack”. Moreover, the “number of head twitches” value in data set [4] is reported as “significantly reduced the number of head twitches”.

Regarding `CC12CC3CC(C)(C1)CC(N)(C3)C2` [memantine], in data set [3], the “duration of attack compared with basal” value was “decrease in duration of attack when compared with its basal; however it was not statistically significant”. In data set [5], the “cortical dopamine levels, AUC of percent change” value is 327.75±24.99 and the “cortical norepinephrine levels, AUC of percent change” value worked out at 371.34±22.45.

The values above are taken from US12721846B2, “Methods for treating behavioral and psychological symptoms in patients with dementia” (SUVEN LIFE SCIENCES LIMITED, priority 2019, dated 2026).
